Measured values published in ChEMBL document CHEMBL1136141, “2-Phenyl-5,6-dihydro-2H-thieno[3,2-c]pyrazol-3-ol derivatives as new inhibitors of bacterial cell wall biosynthesis” (Bioorg Med Chem Lett, 2003).
pIC50: −log10 of the molar value. Converted amounts (≈) assume the structure as drawn.

How the values were obtained:
Enterococcus faecalis [1] = assay: Minimum inhibitory activity against Enterococcus faecalis GC 2242 (VRE); assay type: functional
[2] = Minimum inhibitory activity in presence of 4% bovine serum albumin against Streptococcus pneumoniae GC1894 (PRSP); assay type: functional
Staphylococcus aureus [3] = assay: Minimum inhibitory activity against Staphylococcus aureus GC 2216 (ATCC); assay type: functional
[4] = molecular target: T1, UDP-N-acetylmuramoylalanine--D-glutamate ligase (Staphylococcus aureus, UniProt P0A091); assay: In vitro inhibitory activity against Staphylococcus aureus UDP-N-acetylmuramoyl-L-alanyl-D-glutamate synthetase
T1 sequence (P0A091 whole entry): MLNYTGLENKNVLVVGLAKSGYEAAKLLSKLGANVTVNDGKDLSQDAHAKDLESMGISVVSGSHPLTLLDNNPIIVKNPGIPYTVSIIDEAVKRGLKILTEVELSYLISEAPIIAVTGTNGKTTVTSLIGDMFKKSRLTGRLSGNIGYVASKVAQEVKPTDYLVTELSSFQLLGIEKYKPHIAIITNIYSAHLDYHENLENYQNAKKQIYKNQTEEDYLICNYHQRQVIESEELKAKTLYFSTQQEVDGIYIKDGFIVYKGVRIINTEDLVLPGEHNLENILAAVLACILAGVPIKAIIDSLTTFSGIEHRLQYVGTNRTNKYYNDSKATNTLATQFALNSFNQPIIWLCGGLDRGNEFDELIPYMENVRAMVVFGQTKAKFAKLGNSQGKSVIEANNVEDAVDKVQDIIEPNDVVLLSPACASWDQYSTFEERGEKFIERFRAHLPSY

[5] = Minimum inhibitory activity against Streptococcus pneumoniae GC1894 (PRSP); assay type: functional
Enterococcus faecalis [6] = assay: Minimum inhibitory activity against Enterococcus faecalis GC 4555 (ATCC); assay type: functional
[7] = molecular target: T2, UDP-N-acetylenolpyruvoylglucosamine reductase (Staphylococcus aureus, UniProt P61431); assay: In vitro inhibitory activity against Staphylococcus aureus UDP-N-acetylmuramate dehydrogenase
T2 sequence (P61431 whole entry): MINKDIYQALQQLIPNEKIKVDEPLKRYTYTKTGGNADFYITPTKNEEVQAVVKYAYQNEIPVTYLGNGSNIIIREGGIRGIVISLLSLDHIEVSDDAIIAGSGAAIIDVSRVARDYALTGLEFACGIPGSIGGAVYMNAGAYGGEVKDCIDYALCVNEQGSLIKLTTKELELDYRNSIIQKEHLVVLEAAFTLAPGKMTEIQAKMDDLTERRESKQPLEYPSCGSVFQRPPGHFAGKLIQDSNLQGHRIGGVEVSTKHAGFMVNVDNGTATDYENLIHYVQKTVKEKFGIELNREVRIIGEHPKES

Staphylococcus aureus [8] = assay: Minimum inhibitory activity against Staphylococcus aureus GC 4543 (MSSA); assay type: functional
[9] = molecular target: T3, UDP-N-acetylmuramate--L-alanine ligase (Staphylococcus aureus, UniProt O31211); assay: In vitro inhibitory activity against Staphylococcus aureus UDP-N-acetylmuramoyl-L-alanine synthetase
T3 sequence (O31211 whole entry): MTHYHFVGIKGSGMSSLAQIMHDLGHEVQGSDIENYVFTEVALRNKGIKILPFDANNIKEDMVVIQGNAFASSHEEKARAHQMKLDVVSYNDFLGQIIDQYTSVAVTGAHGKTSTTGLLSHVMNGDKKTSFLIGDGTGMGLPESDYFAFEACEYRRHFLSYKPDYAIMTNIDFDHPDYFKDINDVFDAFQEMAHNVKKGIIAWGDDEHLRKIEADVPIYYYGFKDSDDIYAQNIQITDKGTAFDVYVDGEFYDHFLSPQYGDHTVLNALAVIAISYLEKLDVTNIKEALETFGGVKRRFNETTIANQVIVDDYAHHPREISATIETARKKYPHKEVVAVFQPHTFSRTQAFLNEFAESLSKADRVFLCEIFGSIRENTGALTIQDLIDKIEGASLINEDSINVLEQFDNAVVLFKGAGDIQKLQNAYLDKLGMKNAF

Escherichia coli [10] = assay: Minimum inhibitory activity against Escherichia coli GC 4559; assay type: functional
Escherichia coli [11] = assay: Minimum inhibitory activity against Escherichia coli GC 4560; assay type: functional
[12] = Minimum inhibitory activity against MSCNS GC 646; assay type: functional; conditions: Staphylococcus
Staphylococcus aureus [13] = assay: Minimum inhibitory activity against Staphylococcus aureus GC 1131 (MRSA); assay type: functional
Bacteria = assay: Minimum inhibitory activity against gram negative bacteria; assay type: functional
[14] = Partition coefficient (logP); assay type: physicochemical; conditions: octanol/water

SMILES: O=[N+]([O-])c1ccc(-n2nc3c(c2O)SCC3)cc1
- MIC (Enterococcus faecalis [1]): 64 µg/mL (≈ 243 µM)
- MIC [2]: > 128 µg/mL
- MIC (Staphylococcus aureus [3]): 4 µg/mL (≈ 15.2 µM)
- pIC50 [4]: 4.44
- MIC [5]: 4 µg/mL (≈ 15.2 µM)
- MIC (Enterococcus faecalis [6]): 32 µg/mL (≈ 122 µM)
- pIC50 [7]: 4.67
- MIC (Staphylococcus aureus [8]): 2 µg/mL (≈ 7.6 µM)
- pIC50 [9]: 4.14
- MIC (Escherichia coli [10]): > 128 µg/mL
- MIC (Escherichia coli [11]): > 128 µg/mL
- MIC [12]: 1 µg/mL (≈ 3.8 µM)
- MIC (Staphylococcus aureus [13]): 64 µg/mL (≈ 243 µM)

SMILES: Oc1c2c(nn1-c1cccc(C(F)(F)F)c1)CCS2
- MIC (Enterococcus faecalis [1]): 8 µg/mL (≈ 27.9 µM)
- MIC [2]: > 128 µg/mL
- MIC (Staphylococcus aureus [3]): 2 µg/mL (≈ 6.99 µM)
- pIC50 [4]: 4.17
- MIC [5]: 0.5 µg/mL (≈ 1.75 µM)
- MIC (Enterococcus faecalis [6]): 16 µg/mL (≈ 55.9 µM)
- pIC50 [7]: 4.13
- MIC (Staphylococcus aureus [8]): 1 µg/mL (≈ 3.49 µM)
- pIC50 [9]: < 4.06
- MIC (Escherichia coli [10]): > 128 µg/mL
- MIC (Escherichia coli [11]): 128 µg/mL (≈ 447 µM)
- MIC [12]: 2 µg/mL (≈ 6.99 µM)
- MIC (Staphylococcus aureus [13]): 4 µg/mL (≈ 14 µM)

SMILES: CC(C)c1ccc(-n2nc3c(c2O)SCC3)cc1
- MIC (Enterococcus faecalis [1]): > 128 µg/mL
- MIC [2]: > 128 µg/mL
- MIC (Staphylococcus aureus [3]): 128 µg/mL (≈ 492 µM)
- pIC50 [4]: < 4.02
- MIC [5]: 32 µg/mL (≈ 123 µM)
- MIC (Enterococcus faecalis [6]): > 128 µg/mL
- pIC50 [7]: < 4.02
- MIC (Staphylococcus aureus [8]): 128 µg/mL (≈ 492 µM)
- pIC50 [9]: < 4.02
- MIC (Escherichia coli [10]): > 128 µg/mL
- MIC (Escherichia coli [11]): > 128 µg/mL
- MIC [12]: 128 µg/mL (≈ 492 µM)
- MIC (Staphylococcus aureus [13]): 128 µg/mL (≈ 492 µM)

SMILES: N#Cc1cccc(-n2nc3c(c2O)SCC3)c1
- MIC (Enterococcus faecalis [1]): 8 µg/mL (≈ 32.9 µM)
- MIC [2]: > 128 µg/mL
- MIC (Staphylococcus aureus [3]): 8 µg/mL (≈ 32.9 µM)
- pIC50 [4]: 4.33
- MIC [5]: 4 µg/mL (≈ 16.4 µM)
- MIC (Enterococcus faecalis [6]): 8 µg/mL (≈ 32.9 µM)
- pIC50 [7]: 4.24
- MIC (Staphylococcus aureus [8]): 16 µg/mL (≈ 65.8 µM)
- pIC50 [9]: 4.26
- MIC (Escherichia coli [10]): > 128 µg/mL
- MIC (Escherichia coli [11]): 64 µg/mL (≈ 263 µM)
- MIC [12]: 2 µg/mL (≈ 8.22 µM)
- MIC (Staphylococcus aureus [13]): 32 µg/mL (≈ 132 µM)

SMILES: Oc1c2c(nn1-c1ccc(Cl)c(Cl)c1)CSC2
- MIC (Bacteria): 32 µg/mL (≈ 111 µM)
- pIC50 [7]: < 4.06

SMILES: Oc1c2c(nn1-c1ccc(Cl)cc1)CC(c1ccccc1)S2 (stereo unspecified)
- MIC (Enterococcus faecalis [1]): 64 µg/mL (≈ 195 µM)
- MIC [2]: > 128 µg/mL
- MIC (Staphylococcus aureus [3]): 64 µg/mL (≈ 195 µM)
- pIC50 [4]: 4.13
- MIC [5]: 64 µg/mL (≈ 195 µM)
- MIC (Enterococcus faecalis [6]): > 128 µg/mL
- pIC50 [7]: 4.48
- MIC (Staphylococcus aureus [8]): 128 µg/mL (≈ 389 µM)
- pIC50 [9]: < 4.12
- MIC (Escherichia coli [10]): > 128 µg/mL
- MIC (Escherichia coli [11]): 128 µg/mL (≈ 389 µM)
- MIC [12]: 128 µg/mL (≈ 389 µM)
- MIC (Staphylococcus aureus [13]): 128 µg/mL (≈ 389 µM)

SMILES: Oc1c2c(nn1-c1ccc(Cl)cc1)COC2
- MIC (Bacteria): > 128 µg/mL
- pIC50 [7]: < 3.98

SMILES: Oc1c2c(nn1-c1ccc(Cl)cc1)CSC2
- MIC (Bacteria): > 128 µg/mL
- pIC50 [7]: 3.08

SMILES: Oc1c2c(nn1-c1ccc(Cl)cc1)CCS2
- MIC (Enterococcus faecalis [1]): 16 µg/mL (≈ 63.3 µM)
- MIC [2]: > 128 µg/mL
- MIC (Staphylococcus aureus [3]): 2 µg/mL (≈ 7.91 µM)
- pIC50 [4]: 4.34
- MIC [5]: 1 µg/mL (≈ 3.96 µM)
- MIC (Enterococcus faecalis [6]): 16 µg/mL (≈ 63.3 µM)
- pIC50 [7]: 4.55
- MIC (Staphylococcus aureus [8]): 2 µg/mL (≈ 7.91 µM)
- pIC50 [9]: 4.40
- MIC (Escherichia coli [10]): > 128 µg/mL
- logP [14]: 3.06
- MIC (Escherichia coli [11]): > 128 µg/mL
- MIC [12]: 4 µg/mL (≈ 15.8 µM)
- MIC (Staphylococcus aureus [13]): 16 µg/mL (≈ 63.3 µM)

SMILES: Oc1c2c(nn1-c1cccc(Cl)c1)CCS2
- MIC (Enterococcus faecalis [1]): 8 µg/mL (≈ 31.7 µM)
- MIC [2]: > 128 µg/mL
- MIC (Staphylococcus aureus [3]): 8 µg/mL (≈ 31.7 µM)
- pIC50 [4]: 4.48
- MIC [5]: 2 µg/mL (≈ 7.91 µM)
- MIC (Enterococcus faecalis [6]): 32 µg/mL (≈ 127 µM)
- pIC50 [7]: < 4.00
- MIC (Staphylococcus aureus [8]): 32 µg/mL (≈ 127 µM)
- pIC50 [9]: 4.20
- MIC (Escherichia coli [10]): > 128 µg/mL
- MIC (Escherichia coli [11]): > 128 µg/mL
- MIC [12]: 32 µg/mL (≈ 127 µM)
- MIC (Staphylococcus aureus [13]): 32 µg/mL (≈ 127 µM)

SMILES: O=[N+]([O-])c1cccc(-n2nc3c(c2O)SCC3)c1
- MIC (Enterococcus faecalis [1]): 32 µg/mL (≈ 122 µM)
- MIC [2]: > 128 µg/mL
- MIC (Staphylococcus aureus [3]): 16 µg/mL (≈ 60.8 µM)
- pIC50 [4]: 4.46
- MIC [5]: 4 µg/mL (≈ 15.2 µM)
- MIC (Enterococcus faecalis [6]): 64 µg/mL (≈ 243 µM)
- pIC50 [7]: 4.63
- MIC (Staphylococcus aureus [8]): 32 µg/mL (≈ 122 µM)
- pIC50 [9]: 4.06
- MIC (Escherichia coli [10]): > 128 µg/mL
- MIC (Escherichia coli [11]): > 128 µg/mL
- MIC [12]: 32 µg/mL (≈ 122 µM)
- MIC (Staphylococcus aureus [13]): 32 µg/mL (≈ 122 µM)
